The source of these data is paper PMC6753678, “Fueling Open Innovation for Malaria Transmission-Blocking Drugs: Hundreds of Molecules Targeting Early Parasite Mosquito Stages” (Frontiers in Microbiology, 2019).

For one data set, the system named is HepG2 cells. Briefly: HepG2 cytotoxicity assay. Conditions: unified HepG2 cytotoxicity across the three screens. In a few lines:
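Cells are plated at 2,500 per well on compound-treated plates in MEM containing 10% fetal bovine serum and 1% NEAA, then incubated 48 h at 37°C.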

Data set [1] deals with P. falciparum female gametocytes. Also on record: method as in Miguel-Blanco et al 2017. The settings on record: ref Miguel-Blanco et al 2017; read-out: Pf FGAA IC50; cited from earlier work.
Data set [2] shares this test system. The data set is described as follows: P. falciparum female gametogenesis assay (Pf FGAA). The settings on record: 1: YES; 0: NO; >10-fold selectivity over cytotox.

SMILES strings stand for the structures.

On to `Clc1cccc(C23N=C(Nc4nc5ccccc5[nH]4)NC2(c2ccccc2)NC(Nc2nc4ccccc4[nH]2)=N3)c1` (stereo not drawn) [TCMDC-139089], for which the Unified cytotox with HepG2 cells is given as 42.76 µM. Also, the IC50 in data set [1] is 0.15 µM. Moreover, the “Is compound selective in assay? Pf FGAA active?” value (“Is compound selective” below) in data set [2] is reported as 1 (1: YES).
In the data set with HepG2 cells, `CN(C)CCN1CCN(CCCN2c3ccccc3Sc3ccc(C(F)(F)F)cc32)CC1.Cl` [TCMDC-142257] came in with a Unified cytotox of 77.62 µM. In data set [1], the IC50 is 5.25 µM. Besides, the “Is compound selective” value in data set [2] is given as 1 (1: YES).
As to `CCc1ccc(C2CCN(CCCCNC(=O)c3ccc(NC(=O)c4ccc(Cl)cc4)cc3)CC2)c(OCCO)c1` [TCMDC-138703], the Unified cytotox in the data set on HepG2 cells was determined as 5.37 µM. The IC50 in data set [1] is 2.25 µM. Also, in data set [2], the “Is compound selective” value was 0 (0: NO).
In turn, `CC(=O)Nc1ccc2[nH]cc(C3CCN(CC4CCC(NC(=O)/C=C/c5ccc(Cl)c(Cl)c5)CC4)CC3)c2n1` (stereo not drawn) [TCMDC-140114] registered a Unified cytotox with HepG2 cells of 13.49 µM. The IC50 in data set [1] was 1.74 µM. Further, in data set [2], the “Is compound selective” value was 0 (0: NO).
Regarding `COc1ccc(-c2ccccc2)cc1NC(=S)NC1CCC(CN2CCC(c3c[nH]c4ccccc34)CC2)CC1` (stereo not drawn) [TCMDC-140182], the Unified cytotox in the data set on HepG2 cells was 5.50 µM. For the same compound, the IC50 in data set [1] is 1.65 µM. Moreover, the “Is compound selective” value in data set [2] is given as 0 (0: NO).
In turn, `N=C(N)Nc1nc(-c2ccc(NCc3ccc(CNc4cccc(-c5csc(NC(=N)N)n5)c4)cc3)cc2)cs1` [TCMDC-140699] showed a Unified cytotox in the data set on HepG2 cells of 4.79 µM. Further, in data set [1], the IC50 was 0.9 µM. Further, the “Is compound selective” value in data set [2] was 0 (0: NO).
In the data set on HepG2 cells, `Cc1c(N=O)cc(C(C)(C)C)c(O)c1C(=O)Nc1ccc([N+](=O)[O-])cc1Cl` [TCMDC-142233] displayed a Unified cytotox of 1.78 µM. In addition, the IC50 in data set [1] is 1.17 µM. The “Is compound selective” value in data set [2] is reported as 0 (0: NO).
With `CNCC(C)(C)c1nc(-c2ccc(Cl)c(O)c2)c(-c2ccncc2)[nH]1.Cl` [TCMDC-140762], the Unified cytotox in the data set on HepG2 cells is 13.52 µM. Moreover, in data set [1], the IC50 is 0.88 µM. In addition, the “Is compound selective” value in data set [2] is on record as 1 (1: YES).
Turning to `COc1ccc2nc(N=C3NC4(c5ccccc5)NC(=Nc5nc6ccc(OC)cc6[nH]5)NC4(c4ccccc4)N3)[nH]c2c1.O=C(O)C(F)(F)F` (stereo not drawn) [TCMDC-139632], the Unified cytotox in the data set on HepG2 cells was 62.72 µM. In addition, the IC50 in data set [1] is 0.12 µM. In addition, the “Is compound selective” value in data set [2] is reported as 1 (1: YES).
For the compound `CN(C)CCOc1ccc(NC(=O)NC(C)(C)c2nc(-c3ccc(Cl)c(O)c3)c(-c3ccncc3)[nH]2)cc1.Cl` [TCMDC-140744], the Unified cytotox in the data set with HepG2 cells is recorded as 14.30 µM. Also, in data set [1], the IC50 was 0.73 µM. Also, the “Is compound selective” value in data set [2] is reported as 1 (1: YES).
`O=C(/C=C/c1ccc(Cl)c(Cl)c1)N1CCC(CN2CCC(c3c[nH]c4ccncc34)CC2)CC1` [TCMDC-140074]: the Unified cytotox in the data set with HepG2 cells turned out to be 5.32 µM. Besides, the IC50 in data set [1] is 0.87 µM. In data set [2], the “Is compound selective” value was 0 (0: NO).
As for `COc1ccc(NC(=O)c2cccc(Br)c2)cc1N1CCN(CCCCCCCN2CCN(c3cc(NC(=O)c4cccc(Br)c4)ccc3OC)CC2)CC1.Cl` [TCMDC-139020], in the data set on HepG2 cells, the Unified cytotox is reported as 6.03 µM. In data set [1], the 50% inhibitory concentration (IC50) is 1.06 µM. The “Is compound selective” value in data set [2] is on record as 0 (0: NO).
Consider `COc1cc2nc(N3CCC(CNC(=O)c4ccc(-c5ccc(C(F)(F)F)cc5)cc4)CC3)nc(N)c2cc1OC` [TCMDC-138716], for which the Unified cytotox in the data set on HepG2 cells came out at 4.92 µM. For the same compound, in data set [1], the IC50 is 0.85 µM. Further, the “Is compound selective” value in data set [2] was 0 (0: NO).
Consider `O=C(O)C(F)(F)F.O=S(=O)(c1ccccc1)n1ccc2cc(Nc3ncnc4cc(C#C[C@H]5CCCN5)sc34)ccc21` [TCMDC-138913], for which, in the data set with HepG2 cells, the Unified cytotox turned out to be 5.50 µM. Further, the IC50 in data set [1] was 1.17 µM. For the same compound, the “Is compound selective” value in data set [2] is on record as 0 (0: NO).
In the data set on HepG2 cells, `O=C(NC1CCN(CCN2CCC(c3c[nH]c4ccccc34)CC2)CC1)c1ccc(-c2ccc(C(F)(F)F)cc2)cc1` [TCMDC-138845] yielded a Unified cytotox of 4.68 µM. Further, the IC50 in data set [1] was 1.8 µM. Also, in data set [2], the “Is compound selective” value is given as 0 (0: NO).
In the case of `O=C(NCCCCN1CCC(c2ccc3c(c2OCCN2CCCC2)CCCC3)CC1)c1ccc(-c2ccc(C(F)(F)F)cc2)cc1` [TCMDC-138768], in the data set on HepG2 cells, the Unified cytotox stood at 5.39 µM. The IC50 in data set [1] is 1.98 µM. Besides, in data set [2], the “Is compound selective” value is on record as 0 (0: NO).
In turn, `CN1CCC=C(C(=O)NCC(C)(C)c2nc(-c3ccc(Cl)c(O)c3)c(-c3ccncc3)[nH]2)C1.Cl` [TCMDC-140700] had a Unified cytotox in the data set on HepG2 cells of 13.36 µM. Further, the IC50 in data set [1] was 1.91 µM. In addition, the “Is compound selective” value in data set [2] is 0 (0: NO).
On to `CC(C)(C)c1ccc(CNC(=O)/C=C/c2ccc(CNC3CCNCC3)cc2)cc1` [TCMDC-140773], for which, in the data set with HepG2 cells, the Unified cytotox came out at 9.47 µM. For the same compound, the IC50 in data set [1] was 1.92 µM. For the same compound, the “Is compound selective” value in data set [2] is given as 0 (0: NO).
On to `COC(=O)c1ccc(-c2ccc(-c3cccnc3)cc2C)cc1` [TCMDC-139074], for which, in the data set on HepG2 cells, the Unified cytotox came to 3.63 µM. For the same compound, the IC50 in data set [1] was 0.59 µM. Further, the “Is compound selective” value in data set [2] is 0 (0: NO).
Compound `Cl.Nc1c2c(nc3ccc(NC(=O)CCCCCCc4ccccc4)cc13)CCCC2` [TCMDC-139056] displayed a Unified cytotox in the data set on HepG2 cells of 5.42 µM. Also, the IC50 in data set [1] is 2.38 µM. In data set [2], the “Is compound selective” value is reported as 0 (0: NO).
`Cc1ccc(Cn2nc(Cl)c(N3CCCNCC3)cc2=O)cc1NC(=O)Nc1ccc(-c2ccccc2)cc1.O=C(O)C(F)(F)F` [TCMDC-141697] came in with a Unified cytotox in the data set on HepG2 cells of 7.25 µM. Further, the IC50 in data set [1] is 0.99 µM. The “Is compound selective” value in data set [2] is 0 (0: NO).
In the data set with HepG2 cells, `CN1CCCC1CCNc1ncc2c(-c3ccc(NC(=O)Nc4cc(C(F)(F)F)ccc4F)c(F)c3)nn(C)c2n1.O=C(O)C(F)(F)F` (stereo not drawn) [TCMDC-141610] came in with a Unified cytotox of 4.62 µM. Also, in data set [1], the IC50 is 1.47 µM. Also, the “Is compound selective” value in data set [2] was 0 (0: NO).
On to `Nc1cc2c(C3CCN(CC4CCN(C(=O)/C=C/c5ccc(Cl)c(Cl)c5)CC4)CC3)c[nH]c2cn1` [TCMDC-140133], for which the Unified cytotox with HepG2 cells worked out at 6.24 µM. Besides, the IC50 in data set [1] was 1.97 µM. Besides, in data set [2], the “Is compound selective” value was 0 (0: NO).
Turning to `CC(C)(C)c1ccc(CNC(=O)c2ccc(CNC3CCC(N)CC3)s2)cc1` (stereo not drawn) [TCMDC-140777], the Unified cytotox in the data set with HepG2 cells is recorded as 8.95 µM. The IC50 in data set [1] is 2.44 µM. Further, the “Is compound selective” value in data set [2] is 0 (0: NO).
`COc1ccc(NC(=O)c2ccc(OCCCCCCCOc3ccc(C(=O)Nc4ccc(OC)c(N5CCN(C)CC5)c4)cc3)cc2)cc1N1CCN(C)CC1.O=C(O)C(=O)O` [TCMDC-139007] showed a Unified cytotox in the data set with HepG2 cells of 4.43 µM. The IC50 in data set [1] was 1.41 µM. In data set [2], the “Is compound selective” value is listed as 0 (0: NO).
`CN1CCN(CCCNc2ncc3c(-c4ccc(NC(=O)Nc5cc(C(F)(F)F)ccc5F)c(F)c4)nn(C)c3n2)CC1.O=C(O)C(F)(F)F` [TCMDC-141611] displayed a Unified cytotox with HepG2 cells of 4.90 µM. For the same compound, the IC50 in data set [1] was 0.87 µM. Further, in data set [2], the “Is compound selective” value is recorded as 0 (0: NO).
`Nc1ccc2[nH]cc(C3CCN(CC4CCN(C(=O)/C=C/c5ccc(Cl)c(Cl)c5)CC4)CC3)c2n1` [TCMDC-140061] yielded a Unified cytotox in the data set on HepG2 cells of 5.89 µM. Besides, the IC50 in data set [1] was 1.77 µM. Also, in data set [2], the “Is compound selective” value was 0 (0: NO).
Take `CC(Cc1ccc(NC(=O)c2ccc(CNCCc3ccccc3)cc2)cc1)NCCc1cccc(Cl)c1.Cl` (stereo not drawn) [TCMDC-139867]: the Unified cytotox in the data set with HepG2 cells was determined as 4.17 µM. Also, in data set [1], the IC50 was 2.07 µM. Besides, in data set [2], the “Is compound selective” value was 0 (0: NO).
In the data set with HepG2 cells, `CN1CCN(c2cc3c(cc2Cl)CCN3C(=O)Nc2ccc(NC(=O)c3ccc(C(F)(F)F)cc3)cc2)CC1.Cl` [TCMDC-139270] had a Unified cytotox of 3.99 µM. The IC50 in data set [1] is 0.69 µM. Besides, the “Is compound selective” value in data set [2] is given as 0 (0: NO).
For the compound `Nc1ccc2[nH]cc(C3CCN(CC4CCC(NC(=O)/C=C/c5ccc(Cl)c(Cl)c5)CC4)CC3)c2n1` (stereo not drawn) [TCMDC-140064], in the data set with HepG2 cells, the Unified cytotox is 12.59 µM. The IC50 in data set [1] was 0.69 µM. In addition, the “Is compound selective” value in data set [2] was 1 (1: YES).
The compound `CC1(CCN2CCC(c3c[nH]c4cnccc34)CC2)CCCc2c(Br)cccc2C1=O.Cl` (stereo not drawn) [TCMDC-141171] registered a Unified cytotox in the data set with HepG2 cells of 5.25 µM. In addition, the IC50 in data set [1] was 1.73 µM. In addition, in data set [2], the “Is compound selective” value is given as 0 (0: NO).
`COc1cc2nc(N3CCC(CNC(=O)c4ccc(-c5ccc(Cl)cc5)cc4)CC3)nc(N)c2cc1OC` [TCMDC-138718] gave a Unified cytotox with HepG2 cells of 4.22 µM. For the same compound, the IC50 in data set [1] is 0.89 µM. In data set [2], the “Is compound selective” value is 0 (0: NO).
In turn, `Cl.O=C(NCCCCN1CCC(c2ccc3c(c2O)CCCC3)CC1)c1ccc(NC(=O)c2ccc(Cl)cc2)cc1` [TCMDC-138645] came in with a Unified cytotox with HepG2 cells of 3.80 µM. Besides, the IC50 in data set [1] was 1.49 µM. Moreover, the “Is compound selective” value in data set [2] is recorded as 0 (0: NO).
In turn, `CC(C)(CNC(=O)[C@H]1CCCN1)c1nc(-c2ccc(Cl)c(O)c2)c(-c2ccncc2)[nH]1.Cl` [TCMDC-141060] yielded a Unified cytotox in the data set on HepG2 cells of 32.74 µM. Moreover, the IC50 in data set [1] was 1.21 µM. Further, the “Is compound selective” value in data set [2] was 1 (1: YES).
The compound `CC(C)(CNC(=O)[C@@H]1CCCCN1)c1nc(-c2ccc(Cl)c(O)c2)c(-c2ccncc2)[nH]1.Cl` [TCMDC-141079] had a Unified cytotox with HepG2 cells of 38.91 µM. Moreover, the IC50 in data set [1] is 1.58 µM. Further, the “Is compound selective” value in data set [2] is recorded as 1 (1: YES).
